Reference: patent publication US12618095B2, “Medium for Bacillus cereus group detection” (SHIMADZU DIAGNOSTICS CORPORATION, priority 2020, dated 2026)

Tested on: C. albicans
Assay: Test Example 9: concentration of amphotericin B

Measured: Number of colonies

C[C@@H]1[C@H](O)[C@@H](C)/C=C/C=C/C=C/C=C/C=C/C=C/C=C/[C@H](O[C@@H]2O[C@H](C)[C@@H](O)[C@H](N)[C@@H]2O)C[C@@H]2O[C@](O)(C[C@@H](O)C[C@@H](O)[C@H](O)CC[C@@H](O)C[C@@H](O)CC(=O)O[C@H]1C)C[C@H](O)[C@H]2C(=O)O [Amphotericin B]
−: ATCC10231, Amphotericin B 0.1 mg, 24 hours, 10^2 cfu/mL | ATCC10231, Amphotericin B 0.1 mg, 24 hours, 10^3 cfu/mL | ATCC10231, Amphotericin B 0.1 mg, 24 hours, 10^4 cfu/mL | ATCC10231, Amphotericin B 0.1 mg, 24 hours, 10^5 cfu/mL | ATCC10231, Amphotericin B 0.1 mg, 44 hours, 10^2 cfu/mL | ATCC10231, Amphotericin B 0.1 mg, 44 hours, 10^3 cfu/mL | ATCC10231, Amphotericin B 0.1 mg, 44 hours, 10^4 cfu/mL | ATCC10231, Amphotericin B 1.0 mg, 24 hours, 10^2 cfu/mL | ATCC10231, Amphotericin B 1.0 mg, 24 hours, 10^3 cfu/mL | ATCC10231, Amphotericin B 1.0 mg, 24 hours, 10^4 cfu/mL | ATCC10231, Amphotericin B 1.0 mg, 24 hours, 10^5 cfu/mL | ATCC10231, Amphotericin B 1.0 mg, 44 hours, 10^2 cfu/mL | ATCC10231, Amphotericin B 1.0 mg, 44 hours, 10^3 cfu/mL | ATCC10231, Amphotericin B 1.0 mg, 44 hours, 10^4 cfu/mL | ATCC10231, Amphotericin B 1.0 mg, 44 hours, 10^5 cfu/mL | ATCC10231, Amphotericin B 10 mg, 24 hours, 10^2 cfu/mL | ATCC10231, Amphotericin B 10 mg, 24 hours, 10^3 cfu/mL | ATCC10231, Amphotericin B 10 mg, 24 hours, 10^4 cfu/mL | ATCC10231, Amphotericin B 10 mg, 24 hours, 10^5 cfu/mL | ATCC10231, Amphotericin B 10 mg, 44 hours, 10^2 cfu/mL | ATCC10231, Amphotericin B 10 mg, 44 hours, 10^3 cfu/mL | ATCC10231, Amphotericin B 10 mg, 44 hours, 10^4 cfu/mL | ATCC10231, Amphotericin B 10 mg, 44 hours, 10^5 cfu/mL | ATCC14053, Amphotericin B 0.1 mg, 24 hours, 10^2 cfu/mL | ATCC14053, Amphotericin B 0.1 mg, 24 hours, 10^3 cfu/mL | ATCC14053, Amphotericin B 0.1 mg, 24 hours, 10^4 cfu/mL | ATCC14053, Amphotericin B 0.1 mg, 24 hours, 10^5 cfu/mL | ATCC14053, Amphotericin B 0.1 mg, 44 hours, 10^2 cfu/mL | ATCC14053, Amphotericin B 0.1 mg, 44 hours, 10^3 cfu/mL | ATCC14053, Amphotericin B 0.1 mg, 44 hours, 10^4 cfu/mL | ATCC14053, Amphotericin B 1.0 mg, 24 hours, 10^2 cfu/mL | ATCC14053, Amphotericin B 1.0 mg, 24 hours, 10^3 cfu/mL | ATCC14053, Amphotericin B 1.0 mg, 24 hours, 10^4 cfu/mL | ATCC14053, Amphotericin B 1.0 mg, 24 hours, 10^5 cfu/mL | ATCC14053, Amphotericin B 1.0 mg, 44 hours, 10^2 cfu/mL | ATCC14053, Amphotericin B 1.0 mg, 44 hours, 10^3 cfu/mL | ATCC14053, Amphotericin B 1.0 mg, 44 hours, 10^4 cfu/mL | ATCC14053, Amphotericin B 1.0 mg, 44 hours, 10^5 cfu/mL | ATCC14053, Amphotericin B 10 mg, 24 hours, 10^2 cfu/mL | ATCC14053, Amphotericin B 10 mg, 24 hours, 10^3 cfu/mL | ATCC14053, Amphotericin B 10 mg, 24 hours, 10^4 cfu/mL | ATCC14053, Amphotericin B 10 mg, 24 hours, 10^5 cfu/mL | ATCC14053, Amphotericin B 10 mg, 44 hours, 10^2 cfu/mL | ATCC14053, Amphotericin B 10 mg, 44 hours, 10^3 cfu/mL | ATCC14053, Amphotericin B 10 mg, 44 hours, 10^4 cfu/mL | ATCC14053, Amphotericin B 10 mg, 44 hours, 10^5 cfu/mL
